Reference: patent EP0429153A1, “Novel agroclavine and elymoclavine derivatives, processes for their preparation and their use in medicinal preparations” (SCHERING AKTIENGESELLSCHAFT, priority 1989, dated 1991)

Test system: männliche Wistar-Ratten
Experiment: Induction of stereotypies in rats, automatic registration (method of Horowski)
Format: in vivo
Conditions: intraperitoneal, 60 minutes, n = 12
Source text: Die dopaminagonistische Wirkung wurde mit Hilfe der von Horowski beschriebenen Methode der automatischen Registrierung von Stereotypien an Ratten bestimmt (Arzneim. Forsch. 12, 2281-2286, 1978): Unmittelbar nach intraperitonealer Prüfsubstanz- bzw. Vehikelverabreichung werden männliche Wistar-Ratten (90-120 g) einzeln in Zwangskäfige aus Acrylglas gesetzt. Uber ein vor dem Kopf der Tiere angebrachtes elektrodynamisches Aufnahmesystem wird die Zahl der Kontakte an einem stählernen Becher mit einem zentralen Metallstab als Folge der stereotypen Kau-, Leck- und Nagebewegungen während 60 Minuten registriert. Die Mittelwerte ± S.E.M. der Anzahl der Kontakte während 60 Minuten für die verschiedenen Behandlungsgruppen, die mit jeweils 12 Tieren besetzt sind, werden berechnet und die Signifikanz der Unterschiede zwischen den Mittelwerten der verschiedenen Prüfsubstanzdosen im Vergleich zur Vehikel-behandelten Kontrollgruppe mit Hilfe der einfachen Varianzanalyse in Verbindung mit dem Dunnett-Test ermittelt.

[1] = Prüfsubstanzdosis 0.025 (dose unit not given)
[2] = Prüfsubstanzdosis 0.1 (dose unit not given)
[3] = Prüfsubstanzdosis 0.39 (dose unit not given)
[4] = Prüfsubstanzdosis 1.56 (dose unit not given)

Structure (SMILES)	Stereotypien (counts pro 60 Minuten) Mittelwert ± S.F.M.) [1]	Stereotypien (counts pro 60 Minuten) Mittelwert ± S.F.M.) [2]	Stereotypien (counts pro 60 Minuten) Mittelwert ± S.F.M.) [3]	Stereotypien (counts pro 60 Minuten) Mittelwert ± S.F.M.) [4]	Stereotypien (counts pro 60 Minuten) Mittelwert ± S.F.M.) (Prüfsubstanzdosis 6.25 (dose unit not given))
CCCN1CC(C)=C[C@@H]2c3cccc4[nH]c(C)c(c34)C[C@H]21 [CH3 / CH2CH2CH3]	4726 ± 1148xx counts pro 60 Minuten	7601 ± 1182xx counts pro 60 Minuten	9200 ± 672xx counts pro 60 Minuten	10150 ± 598xx counts pro 60 Minuten	–
CCCN1CC(C)=C[C@@H]2c3cccc4[nH]c(Cl)c(c34)C[C@H]21 [Cl / CH2CH2CH3]	2091 ± 394 counts pro 60 Minuten	6470 ± 1018xx counts pro 60 Minuten	7364 ± 927xx counts pro 60 Minuten	8837 ± 699xx counts pro 60 Minuten	10397 ± 1126xx counts pro 60 Minuten
